From publication PMC8409945, “In silico identification and experimental validation of cellular uptake and intracellular labeling by a new cell penetrating peptide derived from CDN1” (Drug Delivery, 2021)

Columns and labels:
[1] = test system: cells; assay: Cellular uptake of FITC-labeled peptides: comparison of CPPs, temperature and inhibitors (cell line not stated); assay type: cell-based; details: 1 h
Protocol: (§1) All cells (thawed cells were passaged less than 5 times) were suspended in 0.5 ml media and cultured in a 24-well plate at a concentration of 1.6 × 10^5 cells per well overnight. […] After incubation, the cells were washed with PBS three times and then imaged by fluorescence microscopy with 20 times lens (Nikon, Tokyo, Japan).
(§2) To determine the penetration efficiency of CPP, the cellular uptake of the indicated concentration of CPP was quantified by multimode spectrophotometry Peptide incubation. The washing step was the same as above, followed by cell lysate collection with 0.3 ml/well-lysing buffer (0.1 M NaOH) for 10 minutes, and then serially centrifuged at 110 g for 5 minutes. A plate-reader spectrophotometer (Tecan, Mannedorf, Switzerland) was used to quantify the fluorescence intensity of each well’s supernatant at the wavelengths of 485 nm in excitation and 535 nm in emission. The protein concentration of supernatant measured by Bradford assay was used to normalize fluorescence intensity. The fluorescence of cellular uptake was expressed as intensity per mg of total cellular protein. Experiments of quantification indicated in this paper were repeated at least three times.

[2] = Peptide aggregation assay by native PAGE; assay type: physicochemical; details: 4 µl peptide 500 µM in PBS, 6.5% native PAGE; Figure S5(B)
[3] = test system: HepG2 cells; assay: Cellular uptake of FITC-labeled peptides, fluorescence microscopy and lysate fluorescence quantification; assay type: cell-based, human
Protocol: as §1, §2

[4] = test system: mouse erythrocytes
Protocol: Mouse erythrocytes free of plasma components were isolated and purified from mouse blood by centrifugation and wash. […] A value of 100% cell lysis was measured by the incubation of erythrocytes incubated with 0.1% Triton X-100.

Substance: FITC-(Acp)-RKRRQTSMTDFYHSKRRLIFSKRK [P2]
- Penetrating efficiency at different temperature ([1]; FITC-P2 5 µM, different temperature, 3 replications, Figure 5(A,B)): temperature dependent
- Penetration efficiency in the presence of endocytosis-related inhibitors ([1]; FITC-P2 5 µM, NaN3, NH4Cl, Heparin, Serum, MβCD, Wortmannin, hyperosmotic sucrose, Chlorpromazine, EIPA, 3 replications, Figure 5(C,D)): significantly decrease
- Penetration in the presence of wortmannin and hyperosmotic sucrose ([1]; FITC-P2 5 µM, wortmannin and hyperosmotic sucrose, Figure 5(C,D)): slightly blocked
- Penetration efficiency compared with well-known CPPs ([1]; FITC-labeled peptides 5 µM, microscopy and fluorescence intensity normalized to protein, 3 replications, Figure 4(C,D)): higher penetration efficiency than MT23 but lower than TAT and hPP10 and Dot1l
- Aggregation propensity by native PAGE [2]: a single band of P2 and without apparent aggregation
- Fluorescence microscopy and normalized fluorescence intensity versus incubation time [3]: significantly increased with incubation time
- Red blood cell membrane damage (hemolysis) [4]: did not observe red blood cell membrane damage
